Results as given in PMC4699555 (Journal of pharmaceutical sciences, 2012).
Like-named read-outs stand apart in the source and are kept apart here.

Columns and labels:
[1] = type: in vivo, Sprague-Dawley rats
[2] = human studies; cited from earlier work
[3] = cited from earlier work
[4] = cited from earlier work; remark: listed apart in the source
[5] = cited from earlier work; remark: listed apart in the source
[6] = cited from earlier work; remark: listed apart in the source

Row | Time up to which the metabolite could be detected in rat serum ([1]; after i.v. (10 mg/kg) and oral (50 mg/kg) vorinostat) | Detection of metabolite in urine ([1]; rats, after i.v. and oral vorinostat) | Structure (SMILES) | Elimination half-life [2] | Log partition coefficient [3] | Biopharmaceutics Classification System (BCS) class [4] | Aqueous solubility [5] [µg/mL] | Elimination half-life ([6]; animal studies) | Oral bioavailability ([6]; rats, oral 10 mg/kg) [%] | Tmax ([6]; rats, oral 10 mg/kg) [min]
1 | up to 12 h | detected | O=C(O)CCC(=O)Nc1ccccc1 [4-anilino-4-oxobutanoic acid] | – | – | – | – | – | – | –
2 | – | – | O=C(CCCCCCC(=O)Nc1ccccc1)NO [Vorinostat, suberoylanilide hydroxamic acid] | approximately 2 hours | 1.9 | Class IV | 200 | approximately 2 hours | 11 | 18 ± 6
